This note sets out measurements from US20160368919A1, “NOVEL PYRIDINE PYRAZINONES AS BET-FAMILY BROMODOMAIN INHIBITORS” (Pfizer Inc., priority 2015, published 2016).

Assay [1] deals with LPS-induced IL-6 production in human whole blood. Kind of assay: IL-6 human whole blood (HWB) assay, LPS-stimulated, HTRF detection. It counts as cell-based. The settings on record: 1 ng/ml LPS, 4 hours. How it is done: Compound effect on IL-6 production was determined using lipopolysaccharide (LPS)-stimulated human whole blood and an HTRF (Homogeneous Time-Resolved Fluorescence) IL-6 detection kit (Human IL6 HTRF Assay CisBio 62IL6PEC). HWB was collected by venous puncture from healthy donors, transferred to a 50 ml polypropylene tube containing sodium heparin (14.3 units per mL of HWB) and then placed in a 37° C. water bath until use. To start the assay, 80 μL of heparin-treated HWB containing 1 ng/ml of LPS (equivalent to LPS ˜EC80 with regard to stimulation of IL-6 production in HWB under these assay conditions) was added to each well of a 384-well, sterile, endotoxin-free, polypropylene plate (Greiner 781281) containing 160 nL of various concentrations of test compound (each plate also contained positive and negative control wells to define the upper and lower limits of the assay signal). The plate was then placed in a thermoshaker incubator set to 370C (Boekel 270440). The final assay concentration (FAC) of test compound ranged from 60 to 0.0006 μM and the FAC of DMSO was 0.2%. After 4 hours, the assay plate was removed from the incubator and centrifuged at 700×g for 10 minutes. 5 μL of the resulting upper plasma layer was removed from each well and diluted 1:2 with 1×Dulbecco's phosphate buffered saline (DPBS). 5 μL of this diluted plasma was then transferred to a white 384-well low volume assay plate (Greiner 784080) containing 5 μL of combined anti-IL-6-Cryptate and anti-IL-6-XL665 detection antibodies (per manufacturer's protocol). The plate was then sealed with a Top Seal (Perkin Elmer 6005185) and incubated at room temperature (RT, 20° C.). After 16-18 hrs (overnight), the HTRF assay signal was read on an Envision 2103 plate reader using a Lance Delfia Dual/Bias mirror TRF laser excitation and emission was measured at 665 nm and 615 nm respectively. The percent (%) effect was calculated for each concentration of test compound and was relative to the amount of HTRF signal produced by the positive and negative control wells contained within each assay plate. The concentrations and % effect values for test compounds were plotted versus each other with a proprietary curve fitting program using a four-parameter logistic dose response equation and the concentration of compound required for 50% effect (IC50) was determined.

Another assay has as its target T1, BRD4 BD1 (Homo sapiens, UniProt O60885).
T1 construct: His-tagged BRD4 BD1 (44-160); made in house
The experiment in a line: BRD4 BD1 Fluorescence Polarization (FP) competition binding assay. To be noted: BRD4 BD1 40 nM, probe PFI-411FP 2 nM. How it is done: Compound binding to BRD4 BD1 was assessed with a FP competition binding assay. […] All assay components were diluted in 50 mM HEPES pH 7.4 containing 0.08% bovine serum albumin (assay buffer). To start the assay, 8 μL of BRD4 BD1 was added to each well of a low volume 384-well black flat bottom microtiter plate (Corning 3820) containing 4 μl of various concentrations of test compound (each plate also contained positive and negative control wells to define the upper and lower limits of the assay signal). After addition of BRD4 BD1, the assay plate was incubated at room temperature (RT, 20° C.). After 15 minutes, 4 μL of PFI-411FP was added to each well and the assay plate was placed in the dark at RT. The final assay concentration (FAC) of PFI-411FP was 2 nM, the FAC of BRD4 BD1 was 40 nM, the FAC of test compound ranged from 120 to 0.0012 μM and the FAC of DMSO was 0.4%. After 60 min, polarization values were measured with an Envision 2103 multilabel reader (Perkin Elmer) using a Cy5 dual enhanced mirror and excitation at 620 nm and emission at 688 nm. The percent (%) effect was calculated for each concentration of test compound and was relative to the amount of polarization signal produced by the positive and negative control wells contained within each assay plate. The concentrations and % effect values for test compounds were plotted versus each other with a proprietary curve fitting program using a four-parameter logistic dose response equation and the concentration of compound required for 50% effect (IC50) was determined. The Ki values of competitive inhibitors were calculated using the equation described by Nikolovska-Coleska et al. (Development and optimization of a binding assay for the XIAP BIR3 domain using fluorescence polarization. Analytical Biochemistry (2004) 332: 261-273).

In a further assay the test system is MM1.S cells. Kind of assay: MM1.S cell proliferation assay (CellTiter-Glo). The format is cell-based. The settings on record: MM1.S, CTG at 96h. How it is done: (§1) MM1.S (dexamethasone sensitive) and OPM-2 cells were purchased from ATCC and maintained in RPMI-1640 medium with 10% fetal bovine serum at 37 degrees, 5% CO2. Cells were seeded at 10,000 cells/well in 100 uL medium. The following day compounds or control vehicle (DMSO) were added at indicated concentrations in 10 ul volume. Compound treated OPM-2 cells and MM1.S cell were analyzed for cell density at 72h and 96h, respectively, using CellTiter-Glo® (CTG) reagent (Promega). The CTG assay measures the amount of ATP present, which indicates the number of viable cells in culture.

The test system of the next assay is OPM-2 cells. The experiment in a line: OPM-2 cell proliferation assay (CellTiter-Glo). The format is cell-based. To be noted: OPM-2, CTG at 72h. How it is done:
as §1

A word on the IC50: it is the concentration at which inhibition is half-maximal. Lower therefore signals greater potency in that assay. For `Cc1noc(C)c1-c1ccc2nc(NCCC(=O)O)c(=O)n([C@@H](C)c3ccccc3)c2n1` [Example 42, N-{6-(3,5-dimethyl-1,2-oxazol-4-yl)-3-oxo-4-[(1S)-1-phenylethyl]-3,4-dihydropyrido[2,3-b]pyrazin-2-yl}-beta-alanine], the IC50 in assay [1] came to 6160 nM; on BRD4 BD1 it was 146 nM.

Turning to `COc1ccccc1[C@H](C)n1c(=O)c(NCCC(=O)O)nc2ccc(-c3c(C)noc3C)nc21` [Example 43, N-{6-(3,5-dimethyl-1,2-oxazol-4-yl)-4-[(1S)-1-(2-methoxyphenyl)ethyl]-3-oxo-3,4-dihydropyrido[2,3-b]pyrazin-2-yl}-beta-alanine], the IC50 is 8350 nM in assay [1] and 576 nM at BRD4 BD1.

With `CC[C@@H](c1ccccc1)n1c(=O)c(NCCC(=O)O)nc2ccc(-c3c(C)noc3C)nc21` [Example 44, N-{6-(3,5-dimethyl-1,2-oxazol-4-yl)-3-oxo-4-[(1S)-1-phenylpropyl]-3,4-dihydropyrido[2,3-b]pyrazin-2-yl}-beta-alanine], the IC50 in assay [1] amounted to 2560 nM; at BRD4 BD1, 89.8 nM.

Turning to `CC[C@@H](c1ncccn1)n1c(=O)c(NCCC(=O)O)nc2ccc(-c3c(C)noc3C)nc21` [Example 45, N-{6-(3,5-dimethyl-1,2-oxazol-4-yl)-3-oxo-4-[(1S)-1-(pyrimidin-2-yl)propyl]-3,4-dihydropyrido[2,3-b]pyrazin-2-yl}-beta-alanine], the IC50 in assay [1] amounted to 8440 nM; on BRD4 BD1 it was 325 nM.

As to `CC[C@@H](COC)n1c(=O)c(NCCC(=O)O)nc2ccc(-c3c(C)noc3C)nc21` [Example 46, N-{6-(3,5-dimethyl-1,2-oxazol-4-yl)-4-[(2S)-1-methoxybutan-2-yl]-3-oxo-3,4-dihydropyrido[2,3-b]pyrazin-2-yl}-beta-alanine], the IC50 amounted to 6220 nM in assay [1] and 355 nM on BRD4 BD1.

Consider `COCC(COC)n1c(=O)c(NCCC(=O)O)nc2ccc(-c3c(C)noc3C)nc21` [Example 48, N-[4-(1,3-dimethoxypropan-2-yl)-6-(3,5-dimethyl-1,2-oxazol-4-yl)-3-oxo-3,4-dihydropyrido[2,3-b]pyrazin-2-yl]-beta-alanine], for which the IC50 in assay [1] is 15100 nM; on BRD4 BD1 it was 465 nM.

Regarding `Cc1noc(C)c1-c1ccc2nc(NCCC(=O)NS(C)(=O)=O)c(=O)n([C@@H](C)c3ccccc3)c2n1` [Example 50, N^3-{6-(3,5-dimethyl-1,2-oxazol-4-yl)-3-oxo-4-[(1S)-1-phenylethyl]-3,4-dihydropyrido[2,3-b]pyrazin-2-yl}-N-(methylsulfonyl)-beta-alaninamide], the IC50 in assay [1] was 32000 nM; on BRD4 BD1, 235 nM.

As for `Cc1noc(C)c1-c1ccc2nc(NCCc3nnn[nH]3)c(=O)n([C@@H](C)c3ccccc3)c2n1` [Example 51, 6-(3,5-dimethyl-1,2-oxazol-4-yl)-4-[(1S)-1-phenylethyl]-2-{[2-(1H-tetrazol-5-yl)ethyl]amino}pyrido[2,3-b]pyrazin-3(4H)-one], the IC50 turned out to be 63700 nM in assay [1] and 294 nM at BRD4 BD1.

Take `CCC[C@@H](c1ccccc1)n1c(=O)c(NCCC(=O)O)nc2ccc(-c3c(C)noc3C)nc21` [Example 52, N-{6-(3,5-dimethyl-1,2-oxazol-4-yl)-3-oxo-4-[(1S)-1-phenylbutyl]-3,4-dihydropyrido[2,3-b]pyrazin-2-yl}-beta-alanine]: the figures for the IC50 (in assay [1]; on BRD4 BD1) were 1090 nM and 62.7 nM, respectively.

As to `Cc1noc(C)c1-c1ccc2nc(NCCC(=O)O)c(=O)n([C@H](c3ccccc3)C(C)C)c2n1` [Example 53, N-{6-(3,5-dimethyl-1,2-oxazol-4-yl)-4-[(1S)-2-methyl-1-phenylpropyl]-3-oxo-3,4-dihydropyrido[2,3-b]pyrazin-2-yl}-beta-alanine], the IC50 in assay [1] turned out to be 9260 nM; on BRD4 BD1, 125 nM.

In the case of `Cc1noc(C)c1-c1ccc2nc(NCCC(=O)O)c(=O)n([C@H](c3ccccn3)C(C)C)c2n1` [Example 54, N-{6-(3,5-dimethyl-1,2-oxazol-4-yl)-4-[(1S)-2-methyl-1-(pyridin-2-yl)propyl]-3-oxo-3,4-dihydropyrido[2,3-b]pyrazin-2-yl}-beta-alanine], the IC50 stood at 2640 nM in assay [1] and 99.4 nM on BRD4 BD1.

On to `Cc1noc(C)c1-c1ccc2nc(NCCC(=O)O)c(=O)n([C@@H](C)C3CCCCC3)c2n1` [Example 55, N-{4-[(1S)-1-cyclohexylethyl]-6-(3,5-dimethyl-1,2-oxazol-4-yl)-3-oxo-3,4-dihydropyrido[2,3-b]pyrazin-2-yl}-beta-alanine], for which the IC50 worked out at 11400 nM in assay [1] and 130 nM on BRD4 BD1.

With `CCC(CC)n1c(=O)c(NCCC(=O)O)nc2ccc(-c3c(C)noc3C)nc21` [Example 56, N-[6-(3,5-dimethyl-1,2-oxazol-4-yl)-3-oxo-4-(pentan-3-yl)-3,4-dihydropyrido[2,3-b]pyrazin-2-yl]-beta-alanine], the IC50 in assay [1] is 11900 nM; on BRD4 BD1, 346 nM.

Regarding `CNC(=O)CNc1nc2ccc(-c3c(C)noc3C)nc2n([C@@H](C)c2ccccc2OC)c1=O` [Example 57, N^2-{6-(3,5-dimethyl-1,2-oxazol-4-yl)-4-[(1S)-1-(2-methoxyphenyl)ethyl]-3-oxo-3,4-dihydropyrido[2,3-b]pyrazin-2-yl}-N-methylglycinamide], the IC50 came out at 919 nM in assay [1] and 159 nM on BRD4 BD1.

Turning to `Cc1sc2c(c1C)C(c1ccc(Cl)cc1)=N[C@@H](CC(=O)OC(C)(C)C)c1nnc(C)n1-2` [JQ1(−)], the IC50 with MM1.S cells and with OPM-2 cells was over 1000 nM throughout.
